Data: patent publication US20130196050A1, “SALTY TASTE ENHANCER” (AJINOMOTO CO., INC., priority 2010, published 2013)

target: T1, Human ENaC δ, β and γ subunit (Homo sapiens, UniProt P51168+P51170+P51172); test: Measurement of ENaC activation potency (two electrode voltage clamp current in ENaC-expressing oocyte); format: cell-based; conditions: lowest concentration increasing the current value by not less than 10% vs before addition
T1 construct: expressed in transfected cells; host or cells: Xenopus laevis (African clawed frog) oocytes injected with cRNA
T1 sequence (P51172 1-638 isoform P51172-1): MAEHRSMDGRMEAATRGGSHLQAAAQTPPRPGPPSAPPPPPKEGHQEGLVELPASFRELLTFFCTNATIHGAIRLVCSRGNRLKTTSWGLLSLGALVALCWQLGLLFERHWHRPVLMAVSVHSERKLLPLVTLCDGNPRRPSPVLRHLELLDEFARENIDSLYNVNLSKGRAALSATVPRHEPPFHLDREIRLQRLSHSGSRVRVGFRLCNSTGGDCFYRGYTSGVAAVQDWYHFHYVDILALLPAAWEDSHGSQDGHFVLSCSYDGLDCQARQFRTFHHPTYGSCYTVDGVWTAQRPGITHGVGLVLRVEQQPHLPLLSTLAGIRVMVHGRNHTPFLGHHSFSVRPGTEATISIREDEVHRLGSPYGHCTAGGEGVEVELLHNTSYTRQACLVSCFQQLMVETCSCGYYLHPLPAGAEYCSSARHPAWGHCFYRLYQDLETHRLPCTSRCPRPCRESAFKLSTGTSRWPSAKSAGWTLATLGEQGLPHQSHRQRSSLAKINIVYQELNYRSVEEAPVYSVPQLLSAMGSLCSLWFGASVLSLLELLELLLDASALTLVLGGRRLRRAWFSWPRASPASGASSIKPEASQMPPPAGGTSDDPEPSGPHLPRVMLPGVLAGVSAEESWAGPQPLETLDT
T1 sequence (P51168 1-640): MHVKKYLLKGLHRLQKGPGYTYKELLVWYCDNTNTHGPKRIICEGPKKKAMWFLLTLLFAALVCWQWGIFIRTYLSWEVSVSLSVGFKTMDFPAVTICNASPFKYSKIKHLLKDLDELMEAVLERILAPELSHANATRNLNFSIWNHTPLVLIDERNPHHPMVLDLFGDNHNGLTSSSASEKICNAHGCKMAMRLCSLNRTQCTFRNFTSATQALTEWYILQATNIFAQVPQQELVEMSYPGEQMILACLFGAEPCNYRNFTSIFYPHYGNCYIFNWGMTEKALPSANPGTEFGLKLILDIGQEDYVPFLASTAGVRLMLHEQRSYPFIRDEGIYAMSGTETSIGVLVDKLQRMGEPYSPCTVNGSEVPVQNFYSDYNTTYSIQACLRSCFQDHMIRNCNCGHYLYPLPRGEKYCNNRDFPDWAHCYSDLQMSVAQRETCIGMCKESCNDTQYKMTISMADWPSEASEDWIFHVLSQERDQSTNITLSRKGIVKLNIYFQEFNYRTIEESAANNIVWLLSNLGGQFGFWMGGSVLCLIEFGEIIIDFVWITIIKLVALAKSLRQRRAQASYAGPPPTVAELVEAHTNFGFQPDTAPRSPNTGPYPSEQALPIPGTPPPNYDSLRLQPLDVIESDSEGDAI
T1 sequence (P51170 1-649): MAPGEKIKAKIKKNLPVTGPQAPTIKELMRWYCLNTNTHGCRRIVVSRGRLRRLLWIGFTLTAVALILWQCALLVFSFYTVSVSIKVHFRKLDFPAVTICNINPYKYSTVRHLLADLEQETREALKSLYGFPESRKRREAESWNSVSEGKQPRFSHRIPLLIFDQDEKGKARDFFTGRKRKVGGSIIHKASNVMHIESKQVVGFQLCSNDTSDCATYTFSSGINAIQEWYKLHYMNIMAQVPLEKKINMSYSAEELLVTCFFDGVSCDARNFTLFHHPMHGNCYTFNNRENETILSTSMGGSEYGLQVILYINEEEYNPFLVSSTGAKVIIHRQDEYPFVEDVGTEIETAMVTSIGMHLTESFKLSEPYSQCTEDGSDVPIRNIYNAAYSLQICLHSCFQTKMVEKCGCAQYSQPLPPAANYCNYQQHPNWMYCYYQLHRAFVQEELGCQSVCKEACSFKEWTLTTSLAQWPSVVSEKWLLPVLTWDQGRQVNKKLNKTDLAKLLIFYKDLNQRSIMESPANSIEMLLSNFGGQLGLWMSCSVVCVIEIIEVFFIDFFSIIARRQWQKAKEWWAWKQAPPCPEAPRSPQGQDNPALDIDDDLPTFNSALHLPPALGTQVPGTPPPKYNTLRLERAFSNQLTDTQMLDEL
Experimental: ENaC activation current value, namely, the inward current in ENaC-expressing oocyte was measured as follows.
According to the method described in Motonao Nakamura, Takao Shimizu: Experiment of African clawed frog oocyte, Experimental Medicine Vol. 11, No. 3, 224-232 (1993), oocyte was collected from African clawed frog, […], and the current value was measured by a Two Electrode Voltage Clamp technique. In the present invention, ND96 (96 mM NaCl, 2 mM KCl, 1 mM MgCl2, 5 mM Hepes, 1.8 mM CaCl2, pH 7.6) was used instead of MBS buffer in the above-mentioned document. Injector NANOLITER 2000 manufactured by World Precision Instruments was used for microinjection, OpusXpress 6000A manufactured by Molecular Devices was used for current value measurement by a Two Electrode Voltage Clamp technique, and Clampfit 10.2 software manufactured by Molecular Devices was used for data analysis.
Human ENaC δ, β and γ subunit genes shown by SEQ ID NOs: 1, 2 and 3, respectively, in the Sequence Listing were each cloned into a plasmid vector, and used as a template DNA for cRNA synthesis. cRNA was synthesized using MEGAscript kit manufactured by Ambion and according to the method of the manual of the manufacturer.
A mixture of the same amount of ENaC δ subunit cRNA (0.4 to 0.8 μg/μL), and β and γ subunits cRNA (0.4 μg/μL) was injected into the oocyte of African clawed frog at 27.6 nL per oocyte, and the oocyte was cultured for 16 hours to 72 hours. Thereafter, the oocyte was set on a measuring apparatus OpusXpress 6000A, the electrodes were inserted into the oocyte, the voltage was clamped at a level lower by −30 mV than the resting membrane potential by a Two Electrode Voltage Clamp technique, and the current value was measured.
To measure the ENaC activation potency, oocyte was stimulated with each test compound, and the minimum effective dose (hereinafter to be abbreviated as MED) of the compound at the time point when the electric current started to increase was measured. In this case, the minimum effective dose of the stimulation compound that increased the current value by not less than 10%, as compared to the current value before addition of the compound and without stimulation, was taken as MED. A smaller MED means higher ENaC activation potency.
Each test compound was directly dissolved in ND96, or first dissolved in dimethyl sulfoxide (DMSO) to 100 mM, and then prepared by diluting the solution with ND96 to a concentration used for the evaluation. The concentration of the test compound in ND96 was prepared to various concentrations within the range of 0.1 nM to 300 μm.
ND96 as a perfusion fluid was flowed at a rate of 0.5 mL/min through the measuring apparatus OpusXpress 6000A on which ENaC-expressing oocyte was set, the perfusion fluid was temporarily stopped every 3 minutes to add a test compound solution (0.25 mL) dissolved in ND96 at a rate of 0.5 mL/minute. In this way, the test compound was contacted with ENaC-expressing oocyte, and whether ENaC is activated by the compound was examined by measuring the current value. After addition of the test compound, feeding of the perfusion fluid was resumed to wash away the compound to be ready for the next addition of the compound.
The compound was added successively from a low concentration to a high concentration to stimulate ENaC-expressing oocyte. The concentrations actually added was, for example, 1 nM, 3 nM, 10 nM, 30 nM, 100 nM, 300 nM; 1 μM, 3 μM, 10 μm, 30 μm, 100 μm, 300 μm; 1.2 μM, 6 μM, 30 μm, 150 μm of one test compound. The compound was added from low concentrations to high concentrations at 3 minute intervals. The first compound was added from a low concentration to a high concentration, then the second and the third compounds were similarly added successively to the same oocyte, and changes in the current value were measured. The current value was continuously measured from the start to the end of the experiment. […]

Going from `O=C(O)c1ccccc1C(=O)NCCc1c[nH]c2ccc(O)cc12` [Example 9] to `O=C(N[C@@H](Cc1c[nH]c2ccccc12)C(=O)O)c1c(O)cccc1O` [Example 3], the “MED value (minimum effective dose)” value falls from 3 µM to 0.6 µM (5-fold).

`COC(=O)[C@H](Cc1ccccc1)NC(=O)c1ccc(Br)cc1O` [Example 107] and `O=C(CCc1ccccc1)N[C@@H](Cc1c[nH]c2ccccc12)C(=O)O` [Example 63] cannot be ordered by “MED value (minimum effective dose)” value: 3 µM for the first, 1 to 3 µM for the second.

First: CC(C)(C)OC(=O)NC(Cc1c[nH]c2ccccc12)C(=O)Nc1c(O)cccc1O (stereo in doubt) [Example 21, tert-butyl (S)-1-(2,6-dihydroxyphenylcarbamoyl)-2-(1H-indol-3-yl)ethylcarbamate]
Second: O=C(CCc1ccccc1)NC(Cc1c[nH]c2ccc(F)cc12)C(=O)O (stereo not drawn) [Example 76]
The “MED value (minimum effective dose)” value of the first is 3.3-fold higher: 10 µM for the first, 3 µM for the second.

For `CC(Cc1ccccc1)(NC(=O)CCc1ccccc1)C(=O)O` (stereo not drawn) [Example 75], the “MED value (minimum effective dose)” value was 3 to 10 µM.

With `O=C(NCCc1c[nH]c2ccc(O)cc12)c1cccc(O)c1O` [Example 32] the “MED value (minimum effective dose)” value was 1.2-6^ μM.

target: T2, ENaC β subunit (Homo sapiens, UniProt P51168); test: not given; conditions: literature statement; cited from earlier work
T2 sequence (P51168 1-640): T1 sequence (P51168 1-640)
T2 sequence (P51170 1-649 partner): T1 sequence (P51170 1-649)
T2 sequence (P37088 1-669 partner): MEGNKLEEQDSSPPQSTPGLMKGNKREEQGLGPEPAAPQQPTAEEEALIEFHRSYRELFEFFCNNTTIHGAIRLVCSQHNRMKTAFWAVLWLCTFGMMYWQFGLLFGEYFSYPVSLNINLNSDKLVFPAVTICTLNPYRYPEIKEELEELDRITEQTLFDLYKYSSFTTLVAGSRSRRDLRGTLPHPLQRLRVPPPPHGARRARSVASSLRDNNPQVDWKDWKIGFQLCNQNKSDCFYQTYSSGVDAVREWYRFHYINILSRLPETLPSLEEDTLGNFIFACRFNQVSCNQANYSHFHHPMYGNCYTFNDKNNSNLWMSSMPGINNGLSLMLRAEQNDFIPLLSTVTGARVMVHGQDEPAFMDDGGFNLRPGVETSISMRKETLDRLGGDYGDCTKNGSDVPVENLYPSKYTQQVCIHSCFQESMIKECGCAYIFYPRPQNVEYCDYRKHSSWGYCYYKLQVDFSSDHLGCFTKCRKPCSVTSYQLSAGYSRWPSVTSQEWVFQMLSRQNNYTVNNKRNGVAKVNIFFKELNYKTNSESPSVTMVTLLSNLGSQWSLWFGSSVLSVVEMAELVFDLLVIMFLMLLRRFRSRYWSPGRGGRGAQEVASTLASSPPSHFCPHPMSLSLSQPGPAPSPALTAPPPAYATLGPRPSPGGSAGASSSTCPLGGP

In the case of `Cc1cccc2[nH]cc(SC(CC(C)C)C(=O)NCCO)c12` (stereo not drawn) [Example S3969, N-(2-hydroxyethyl)-4-methyl-2-(4-methyl-1H-indol-3-ylthio)pentanamide], the “action on ENaC” value is given as “stimulant (activator) of ENaC that acts on β subunit”.
